In patent US20240116985A1, “STAPLED PEPTIDES AND METHODS THEREOF” (priority 2020, published 2024):
Values after ≈ are worked out from the molar mass of the structure shown. Like-named read-outs stand apart in the source and are kept apart here.

Columns and labels:
[1] = target: T1, full-length beta-Catenin (Uniprot ID P35222) (Homo sapiens, UniProt P35222); test: Fluorescence polarization IC50 (beta-catenin / 5FAM-TCF4 10-53 competition); assay type: binding
T1 construct: 10 nM full-length beta-Catenin (Uniprot ID P35222)
T1 sequence (P35222 1-781): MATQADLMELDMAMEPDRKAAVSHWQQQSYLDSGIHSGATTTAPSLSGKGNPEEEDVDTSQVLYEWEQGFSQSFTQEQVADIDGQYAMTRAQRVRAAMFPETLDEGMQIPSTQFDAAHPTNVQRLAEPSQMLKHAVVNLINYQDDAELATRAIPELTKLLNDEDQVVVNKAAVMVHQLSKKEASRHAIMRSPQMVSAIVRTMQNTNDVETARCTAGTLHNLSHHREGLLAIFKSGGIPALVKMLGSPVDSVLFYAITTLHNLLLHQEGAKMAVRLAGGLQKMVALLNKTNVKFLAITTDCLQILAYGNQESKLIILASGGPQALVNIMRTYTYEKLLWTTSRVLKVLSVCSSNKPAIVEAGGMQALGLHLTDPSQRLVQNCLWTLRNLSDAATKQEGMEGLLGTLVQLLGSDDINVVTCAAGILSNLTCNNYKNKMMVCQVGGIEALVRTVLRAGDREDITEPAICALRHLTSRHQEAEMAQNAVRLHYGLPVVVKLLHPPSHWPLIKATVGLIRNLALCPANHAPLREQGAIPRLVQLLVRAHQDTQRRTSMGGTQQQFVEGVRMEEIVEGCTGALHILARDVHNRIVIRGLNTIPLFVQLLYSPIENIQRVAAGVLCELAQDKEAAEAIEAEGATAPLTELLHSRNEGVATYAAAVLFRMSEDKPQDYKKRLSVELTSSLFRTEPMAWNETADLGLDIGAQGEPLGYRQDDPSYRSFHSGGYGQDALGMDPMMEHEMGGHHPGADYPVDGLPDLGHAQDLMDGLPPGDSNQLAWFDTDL

CHI Log D procedure = assay type: physicochemical; details: for chromatographic logD: pH 7.4, CHI Log D; for CHI Log D: pH 7.4
Solubility in PBS = assay type: physicochemical
Outline: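 Solubility is derived from HPLC peak areas: the ratio of the PBS supernatant peak to a 50 μM DMSO peptide peak, times 50 uM.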

[2] = fluorescence polarization, read-out: beta-Catenin FP IC50

Row | IC50 [1, 2] [nM] | chromatographic logD (CHI Log D procedure) | Solubility (Solubility in PBS) [µM] | Solubility (Solubility in PBS; Solubility (uM)) [µM] | IC50 ([1]; read-out: FP EC50) [nM] | CHI Log D (CHI Log D procedure) | Compound
1 | 43 | 2.63 | 50 (≈ 98.3 µg/mL) | – | – | – | CC[C@H](C)[C@@H]1NC(=O)[C@H](CC(=O)O)NC(=O)[C@]2(CC=CCCCC3(CCCC=CCCCCCC[C@@](C)(C(=O)N[C@@H](Cc4ccccc4)C(=O)N[C@@H](Cc4csc5ccccc45)C(=O)N[C@@H](CCC(N)=O)C(N)=O)NC(=O)[C@H](CC(N)=O)NC(=O)[C@H](Cc4ccccc4)NC(=O)[C@H](C)NC(=O)[C@H](C)NC(=O)[C@H](CN(CC(=O)O)CC(F)(F)F)NC(=O)[C@H](CC(=O)O)NC3=O)NC1=O)CCCN2C(C)=O (stereo partly drawn) [I-699, Ac-PL3-Asp-Ile-B5-Asp-TfeGA-Ala-Ala-Phe-Asn-S8-Phe-BztA-Gln-NH2]
2 | 76 | 2.75 | – | 40 (≈ 79.3 µg/mL) | – | – | CC[C@H](C)[C@@H]1NC(=O)[C@H](CC(=O)O)NC(=O)[C@]2(CC=CCCCC3(CCCC=CCCCCCC[C@@](C)(C(=O)N[C@@H](Cc4ccsc4)C(=O)N[C@@H](Cc4csc5ccccc45)C(=O)N[C@@H](Cc4c[nH]cn4)C(N)=O)NC(=O)[C@H](CC(N)=O)NC(=O)[C@H](Cc4ccccc4)NC(=O)[C@H](C)NC(=O)[C@H](C)NC(=O)[C@H](CN(CC(=O)O)CC(F)(F)F)NC(=O)[C@H](CC(=O)O)NC3=O)NC1=O)CCCN2C(C)=O (stereo partly drawn) [I-702, Ac-PL3-Asp-Ile-B5-Asp-TfeGA-Ala-Ala-Phe-Asn-S8-3Thi-BztA-His-NH2]
3 | 58 | 2.89 | – | 25 (≈ 49.9 µg/mL) | – | – | CC(=O)N1CCC[C@]12CC=CCCCC1(CCCC=CCCCCCC[C@@](C)(C(=O)N[C@@H](Cc3ccsc3)C(=O)N[C@@H](Cc3csc4ccccc34)C(=O)N[C@@H](Cc3c[nH]cn3)C(N)=O)NC(=O)[C@H](CC(N)=O)NC(=O)[C@H](Cc3ccccc3)NC(=O)[C@H](C)NC(=O)[C@H](C)NC(=O)[C@H](CN(CC(=O)O)CC(F)(F)F)NC(=O)[C@H](CC(=O)O)NC1=O)NC(=O)[C@H](CC(C)(C)C)NC(=O)[C@H](CC(=O)O)NC2=O (stereo partly drawn) [I-705, Ac-PL3-Asp-Npg-B5-Asp-TfeGA-Ala-Ala-Phe-Asn-S8-3Thi-BztA-His-NH2]
4 | 57 | 2.99 | – | 48 (≈ 96.3 µg/mL) | – | – | CC(=O)N1CCC[C@]12CC=CCCCC1(CCCC=CCCCCCC[C@@](C)(C(=O)N[C@@H](Cc3ccccc3)C(=O)N[C@@H](Cc3csc4ccccc34)C(=O)N[C@@H](CCC(N)=O)C(N)=O)NC(=O)[C@H](CC(N)=O)NC(=O)[C@H](Cc3ccccc3)NC(=O)[C@H](C)NC(=O)[C@H](C)NC(=O)[C@H](CN(CC(=O)O)CC(F)(F)F)NC(=O)[C@H](CC(=O)O)NC1=O)NC(=O)[C@H](CC1CCCCC1)NC(=O)[C@H](CC(=O)O)NC2=O (stereo partly drawn) [I-706, Ac-PL3-Asp-Cha-B5-Asp-TfeGA-Ala-Ala-Phe-Asn-S8-Phe-BztA-Gln-NH2]
5 | 46 | – | 48 (≈ 96.6 µg/mL) | – | 46 | 2.963 | CC(=O)N1CCC[C@]12CC=CCCCC1(CCCC=CCCCCCC[C@@](C)(C(=O)N[C@@H](Cc3ccsc3)C(=O)N[C@@H](Cc3csc4ccccc34)C(=O)N[C@@H](CCC(N)=O)C(N)=O)NC(=O)[C@H](CC(N)=O)NC(=O)[C@H](Cc3ccccc3)NC(=O)[C@H](C)NC(=O)[C@H](C)NC(=O)[C@H](CN(CC(=O)O)CC(F)(F)F)NC(=O)[C@H](CC(=O)O)NC1=O)NC(=O)[C@H](CC1CCCCC1)NC(=O)[C@H](CC(=O)O)NC2=O (stereo partly drawn) [I-707, Ac-PL3-Asp-Cha-B5-Asp-TfeGA-Ala-Ala-Phe-Asn-S8-3Thi-BztA-Gln-NH2]
6 | 54 | 3.11 | 10 (≈ 20.2 µg/mL) | – | – | – | CC(=O)N1CCC[C@]12CC=CCCCC1(CCCC=CCCCCCC[C@@](C)(C(=O)N[C@@H](Cc3ccsc3)C(=O)N[C@@H](Cc3csc4ccccc34)C(=O)N[C@@H](Cc3c[nH]cn3)C(N)=O)NC(=O)[C@H](CC(N)=O)NC(=O)[C@H](Cc3ccccc3)NC(=O)[C@H](C)NC(=O)[C@H](C)NC(=O)[C@H](CN(CC(=O)O)CC(F)(F)F)NC(=O)[C@H](CC(=O)O)NC1=O)NC(=O)[C@H](CC1CCCCC1)NC(=O)[C@H](CC(=O)O)NC2=O (stereo partly drawn) [I-709, Ac-PL3-Asp-Cha-B5-Asp-TfeGA-Ala-Ala-Phe-Asn-S8-3Thi-BztA-His-NH2]
7 | 73 | – | 45 (≈ 86.4 µg/mL) | – | 73 | 2.143 | CC[C@H](C)[C@@H]1NC(=O)[C@H](CC(=O)O)NC(=O)[C@]2(CC=CCCCC3(CCCC=CCCCCCC[C@@](C)(C(=O)N[C@@H](Cc4ccccc4)C(=O)N[C@@H](Cc4csc5ccccc45)C(=O)N[C@@H](CCC(N)=O)C(N)=O)NC(=O)[C@H](CCC(N)=O)NC(=O)[C@H](Cc4ccccc4)NC(=O)[C@H](C)NC(=O)[C@H](C)NC(=O)[C@H](CCC(=O)O)NC(=O)[C@H](CC(=O)O)NC3=O)NC1=O)CCCN2S(C)(=O)=O (stereo partly drawn) [I-710, MeSO2-PL3-Asp-Ile-B5-Asp-Glu-Ala-Ala-Phe-Gln-S8-Phe-BztA-Gln-NH2]
8 | 88 | – | 48 (≈ 92.1 µg/mL) | – | 88 | 2.132 | CC[C@H](C)[C@@H]1NC(=O)[C@H](CC(=O)O)NC(=O)[C@]2(CC=CCCCC3(CCCC=CCCCCCC[C@@](C)(C(=O)N[C@@H](Cc4ccccc4)C(=O)N[C@@H](Cc4csc5ccccc45)C(=O)N[C@@H](CCC(N)=O)C(N)=O)NC(=O)[C@H](CCC(N)=O)NC(=O)[C@H](Cc4ccccc4)NC(=O)[C@H](C)NC(=O)[C@H](C)NC(=O)[C@H](CCC(=O)O)NC(=O)[C@H](CC(=O)O)NC3=O)NC1=O)CCCN2S(C)(=O)=O (stereo partly drawn) [I-711, MeSO2-PL3-Asp-Ile-B5-Asp-Glu-Ala-Ala-Phe-Gln-S8-Phe-BztA-Gln-NH2]
9 | 92 | – | 42 (≈ 73.7 µg/mL) | – | 92 | 2.778 | CC(=O)N1CCC[C@]12CC=CCCCC1(CCCC=CCCCCCC[C@@](C)(C(=O)N[C@@H](Cc3ccccc3)C(=O)N[C@@H](Cc3csc4ccccc34)C(N)=O)NC(=O)[C@H](CC(N)=O)NC(=O)[C@H](Cc3ccccc3)NC(=O)[C@H](C)NC(=O)[C@H](C)NC(=O)[C@H](CCC(=O)O)NC(=O)[C@H](CC(=O)O)NC1=O)NC(=O)[C@H](CC(C)(C)C)NC(=O)[C@H](CC(=O)O)NC2=O (stereo partly drawn) [I-712, Ac-PL3-Asp-Npg-B5-Asp-Glu-Ala-Ala-Phe-Asn-S8-Phe-BztA-NH2]
10 | 70 | – | 48 (≈ 84.2 µg/mL) | – | 70 | 2.851 | CC(=O)N1CCC[C@]12CC=CCCCC1(CCCC=CCCCCCC[C@@](C)(C(=O)N[C@@H](Cc3ccccc3)C(=O)N[C@@H](Cc3csc4ccccc34)C(N)=O)NC(=O)[C@H](CC(N)=O)NC(=O)[C@H](Cc3ccccc3)NC(=O)[C@H](C)NC(=O)[C@H](C)NC(=O)[C@H](CCC(=O)O)NC(=O)[C@H](CC(=O)O)NC1=O)NC(=O)[C@H](CC(C)(C)C)NC(=O)[C@H](CC(=O)O)NC2=O (stereo partly drawn) [I-713, Ac-PL3-Asp-Npg-B5-Asp-Glu-Ala-Ala-Phe-Asn-S8-Phe-BztA-NH2]
11 | 131 | – | 43 (≈ 74.9 µg/mL) | – | 131 | 2.698 | CC[C@H](C)[C@@H]1NC(=O)[C@H](CC(=O)O)NC(=O)[C@]2(CC=CCCCC3(CCCC=CCCCCCC[C@@](C)(C(=O)N[C@@H](Cc4ccccc4)C(=O)N[C@@H](Cc4csc5ccccc45)C(N)=O)NC(=O)[C@H](CC(N)=O)NC(=O)[C@H](Cc4ccccc4)NC(=O)[C@H](C)NC(=O)[C@H](C)NC(=O)[C@H](CCC(=O)O)NC(=O)[C@H](CC(=O)O)NC3=O)NC1=O)CCCN2C(C)=O (stereo partly drawn) [I-714, Ac-PL3-Asp-Ile-B5-Asp-Glu-Ala-Ala-Phe-Asn-S8-Phe-BztA-NH2]
12 | 60.5 | – | 25 (≈ 43.5 µg/mL) | – | 60.5 | 2.762 | CC[C@H](C)[C@@H]1NC(=O)[C@H](CC(=O)O)NC(=O)[C@]2(CC=CCCCC3(CCCC=CCCCCCC[C@@](C)(C(=O)N[C@@H](Cc4ccccc4)C(=O)N[C@@H](Cc4csc5ccccc45)C(N)=O)NC(=O)[C@H](CC(N)=O)NC(=O)[C@H](Cc4ccccc4)NC(=O)[C@H](C)NC(=O)[C@H](C)NC(=O)[C@H](CCC(=O)O)NC(=O)[C@H](CC(=O)O)NC3=O)NC1=O)CCCN2C(C)=O (stereo partly drawn) [I-715, Ac-PL3-Asp-Ile-B5-Asp-Glu-Ala-Ala-Phe-Asn-S8-Phe-BztA-NH2]
13 | 91 | – | 50 (≈ 87.4 µg/mL) | – | 91 | 2.622 | CC(=O)N1CCC[C@]12CC=CCCCC1(CCCC=CCCCCCC[C@@](C)(C(=O)N[C@@H](Cc3ccsc3)C(=O)N[C@@H](Cc3csc4ccccc34)C(N)=O)NC(=O)[C@H](CC(N)=O)NC(=O)[C@H](Cc3ccccc3)NC(=O)[C@H](C)NC(=O)[C@H](C)NC(=O)[C@H](CCC(=O)O)NC(=O)[C@H](CC(=O)O)NC1=O)NC(=O)[C@H](CC(C)C)NC(=O)[C@H](CC(=O)O)NC2=O (stereo partly drawn) [I-716, Ac-PL3-Asp-Leu-B5-Asp-Glu-Ala-Ala-Phe-Asn-S8-3Thi-BztA-NH2]
